From patent US20150306232A1, “HYDROGELATORS COMPRISING D-AMINO ACIDS” (BRANDEIS UNIVERSITY, priority 2012, published 2015)
Non-standard residues stand in square brackets, D forms with d. Residues, ends and D or L forms follow the SMILES beside them. *: point of attachment. Paclitaxel(2'-O-succinyl) = CC(=O)O[C@H]1C(=O)[C@@]2(C)[C@H]([C@H](OC(=O)c3ccccc3)[C@]3(O)C[C@H](OC(=O)[C@H](OC(=O)CCC(=O)*)[C@@H](NC(=O)c4ccccc4)c4ccccc4)C(C)=C1C3(C)C)[C@]1(OC(C)=O)CO[C@@H]1C[C@@H]2O; Naproxen = COc1ccc2cc([C@H](C)C(=O)*)ccc2c1; d(pY) = N[C@H](Cc1ccc(OP(=O)(O)O)cc1)C(=O)O; Acetyl(2-naphthyl) = O=C(Cc1ccc2ccccc2c1)*

Tests used:
[1] = enzymatic hydrogelation with ALP; assay type: physicochemical; settings: water, pH 7.4
Experimental: To investigate the enzymatic hydrogelation of the D-peptidic precursor 11b, we prepared a series of hydrogels formed by using ALP to treat 11b at different concentrations. After dissolving 1.0, 2.0, 3.0, 4.0, and 5.0 mg of 11b in 0.5 mL of water (pH 7.6), respectively, we obtained clear solutions of 11b with different concentrations. The treatment of the solutions of 11b with ALP (1.0 U/mL) afforded the molecules of hydrogelator 12b, which are less soluble than 11b and thus self-assemble in water to form hydrogels when the concentrations of 12b are sufficient.
All the compounds were dissolved in de-ionized water. We then adjusted pH of the solutions carefully adding 1 M of NaOH and 1 M of HCl and measured the values by pH paper (pH 6.0-8.0). After prepared clear weakly basic solutions (pH 7.6 or 7.4), we then formed the hydrogels by adding enzymes (alkaline phosphatase).

HeLa cells = test: cells; assay type: cell-based; settings: 72 hours at 37° C., MTT; read-out: IC50, HeLa cell viability
Experimental: We seeded […] (cells/well) of health HeLa cells into 96-well plate with 100 μL of MEM medium supplemented with 10% fetal bovine serum (FBS), 100 U/mL penicillin and 100 mg mL21 streptomycin. The incubation at 37° C. and 5% CO2 for 12 hours allowed HeLa cells to attach the bottom of 96-well plate. Then we replaced the medium by another 100 μL of growth medium that contained serial diluents of our compounds (0.5% DMSO) and then incubated the cells at 37° C. and 5% CO2 for additional 72 hours. During the measurement of proliferation for HeLa cells, which were assayed into three days, we added 10 μL of (3-(4,5-Dimethylthiazol-2-yl)-2,5-diphenyltetrazolium bromide (MTT, 0.5 mg/mL) into the assigned wells in their corresponding day every 24 hours, which was followed by adding 100 μL of 0.1% sodium dodecyl sulfate (SDS) 4 hours later. Then we collected the assay results after another 24 hours incubation. Since the mitochondrial reductase in living cells reduced MTT to purple fomazan, the absorbance at 595 nm of the whole solution was finally measured by DTX 880 Multimode Detector. With MEM medium as blank and untreated HeLa cells as control, we measure each concentration of these compounds in triplicate. The IC50 values of our hydrogelators were read from their activity curves (with the measurement of 8 different concentrations) in day 3.

[2] = toxicity and relative weight of treated mice; assay type: in vivo, Balb/c mice; settings: hydrogel, single intratumoral injection, 14 days
COX-1 (ovine) enzyme = target: T1, COX-1 (ovine) enzyme (Ovis aries, UniProt P05979); test: COX Fluorescent Inhibitor Screening Assay, COX-1; assay type: biochemical; settings: read-out: IC50 for inhibiting COX-1 enzyme
T1 construct: purchased Cayman Chemical 700100
T1 sequence (P05979 25-600): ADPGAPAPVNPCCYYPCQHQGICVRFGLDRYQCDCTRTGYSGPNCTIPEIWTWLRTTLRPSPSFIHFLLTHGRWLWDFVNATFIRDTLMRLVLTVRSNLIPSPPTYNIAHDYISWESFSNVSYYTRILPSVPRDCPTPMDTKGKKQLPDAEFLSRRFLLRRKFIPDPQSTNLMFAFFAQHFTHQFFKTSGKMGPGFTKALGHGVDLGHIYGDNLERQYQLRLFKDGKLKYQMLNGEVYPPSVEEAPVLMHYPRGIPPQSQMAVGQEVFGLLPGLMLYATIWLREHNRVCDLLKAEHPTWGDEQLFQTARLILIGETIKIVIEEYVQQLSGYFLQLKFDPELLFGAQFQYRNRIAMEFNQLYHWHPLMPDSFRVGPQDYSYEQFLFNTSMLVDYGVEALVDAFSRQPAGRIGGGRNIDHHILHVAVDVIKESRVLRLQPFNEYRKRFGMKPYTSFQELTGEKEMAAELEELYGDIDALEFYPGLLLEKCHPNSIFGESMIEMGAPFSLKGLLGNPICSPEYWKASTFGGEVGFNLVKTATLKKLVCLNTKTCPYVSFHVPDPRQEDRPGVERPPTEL
Experimental: To study the drug efficacies of NSAID containing hydrogelators, here we used ‘COX Fluorescent Inhibitor Screening Assay Kit’ (700100; Cayman Chemical) to do in vitro inhibition assays for Npx and Npx containing hydrogelors 1, 2, 3, 4, 5, and 6. Each compound was tested by COX-1 (ovine) enzyme and COX-2 (human recombinant) enzyme separately in 96 well black assay plates. By utilizing the peroxidase component of COXs, we monitored the reaction between PGG2 and ADHP (10-acetyl-3,7-dihydroxyphenoxazine), which produced highly fluorescent compound resorufin. This resorufin can be easily analyzed by multimode detector with an excitation wavelength of 530-540 nm and an emission wavelength of 585-595 nm. All the compounds are assayed in triplicate. After the combination of 10 μl of inhibitors, 10 μl of Heme solution, 10 μL of fluorometric substrate, 10 μl of enzyme (either COX-1 or COX-2), and 150 μl of assay buffer, we quickly add 10 μl of arachidonic acid solution to initiate the reaction. Then we read the plate exactly after two minutes incubation at room temperature. In this experiment, we also measure the blank data without enzyme and inhibitors, and the control data without inhibitors. The IC50 values of these hydrogelators were read from their activity curves (FIG. 18), which were measured with 5 different concentrations of these hydrogelators (dissolved in DMSO).

| Compound | solubility [1] | IC50 (HeLa cells) [µM] | side effect from relative weights of mice [2] | IC50 (COX-1 (ovine) enzyme) [µM] |
| --- | --- | --- | --- | --- |
| CC(=O)O[C@H]1C(=O)[C@@]2(C)[C@H]([C@H](OC(=O)c3ccccc3)[C@]3(O)C[C@H](OC(=O)[C@H](OC(=O)CCC(=O)NCCCC[C@@H](NC(=O)[C@@H](Cc4ccccc4)NC(=O)[C@@H](Cc4ccccc4)NC(=O)Cc4ccc5ccccc5c4)C(=O)N[C@H](Cc4ccc(OP(=O)(O)O)cc4)C(=O)O)[C@@H](NC(=O)c4ccccc4)c4ccccc4)C(C)=C1C3(C)C)[C@]1(OC(C)=O)CO[C@@H]1C[C@@H]2O [19b, 2-(Naphthalen-2-yl)acetyl-(D)-Phe-(D)-Phe-(D)-Lys(Taxol)-(D)-Tyr phosphate] ({Acetyl(2-naphthyl)}-[dF][dF][dK](Paclitaxel(2'-O-succinyl))[d(pY)]-OH) | relatively good solubility | 0.0619 |  |  |
| CC(=O)O[C@H]1C(=O)[C@@]2(C)[C@H]([C@H](OC(=O)c3ccccc3)[C@]3(O)C[C@H](OC(=O)[C@H](OC(=O)CCC(=O)NCCCC[C@@H](NC(=O)[C@@H](Cc4ccccc4)NC(=O)[C@@H](Cc4ccccc4)NC(=O)Cc4ccc5ccccc5c4)C(=O)N[C@H](Cc4ccc(O)cc4)C(=O)O)[C@@H](NC(=O)c4ccccc4)c4ccccc4)C(C)=C1C3(C)C)[C@]1(OC(C)=O)CO[C@@H]1C[C@@H]2O [20b] ({Acetyl(2-naphthyl)}-[dF][dF][dK](Paclitaxel(2'-O-succinyl))[dY]-OH) | relatively good solubility | 0.106 | limit the side effect of Taxol to the mice |  |
| COc1ccc2cc([C@H](C)C(=O)NCCCC[C@@H](NC(=O)[C@@H](Cc3ccccc3)NC(=O)[C@H](N)Cc3ccccc3)C(=O)O)ccc2c1 [compound 5, D-Phe-D-Phe-D-Lys(naproxen)] |  |  |  | 476 |
| COc1ccc2cc([C@H](C)C(=O)NCCCC[C@@H](NC(=O)[C@@H](Cc3ccccc3)NC(=O)[C@H](N)Cc3ccccc3)C(=O)N[C@H](Cc3ccc(O)cc3)C(=O)O)ccc2c1 [compound 6, D-Phe-D-Phe-D-Lys(naproxen)-D-Tyr] (H-[dF][dF][dK](Naproxen)[dY]-OH) |  |  |  | 367 |
